Measured values as given in US20180263996A1, “ARYL SULTAM DERIVATIVES AS RORc MODULATORS” (Genentech, Inc., priority 2015, published 2018).

Target: T1, RORc (Homo sapiens, UniProt P51449)
T1 construct: host or cells: E. coli
T1 sequence (P51449 269-508 limits assumed): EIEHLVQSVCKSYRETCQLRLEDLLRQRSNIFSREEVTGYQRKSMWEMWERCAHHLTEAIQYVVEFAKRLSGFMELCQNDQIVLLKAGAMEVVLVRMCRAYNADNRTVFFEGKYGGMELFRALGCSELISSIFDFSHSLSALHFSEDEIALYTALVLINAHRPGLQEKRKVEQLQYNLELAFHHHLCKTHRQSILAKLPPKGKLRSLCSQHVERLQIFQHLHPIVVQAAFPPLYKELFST
Experiment: In Vitro RORc Ligand Binding Assay
Settings: IC50 values for RORc
Method: This assay was used to determine a compound's potency in inhibiting activity of RORc by determining, Kiapp, IC50, or percent inhibition values.
On day of the assay, 100 uL of 0.05% CHAPS (in deionized H2O) was added to all wells of the GFB Unifilter plate and allowed soak for 1 h. A wash buffer of 50 mM HEPES (pH 7.4), 150 mM NaCl, and 5 mM MgCl2 was prepared to wash the filter plate. To prepare an assay buffer, BSA was added to the wash buffer to reach 0.01% and DTT was added to reach 1 mM.
The 20× compound stocks were diluted in DMSO with Assay Buffer 4-fold to reach 5× the final test concentration in 25% DMSO (10 uL compound+30 uL Assay Buffer). Solutions were mixed by aspiration several times with a pipette set on 50 uL volume.
For two point screening, 10 mM stock compound solutions were diluted in DMSO to obtain 200 uM (20× the high test concentration) and then diluted 10-fold further to reach 20 uM (20× the low test concentration). The 20× stocks were diluted 4-fold with Assay Buffer (10 uL compound+30 uL Assay Buffer) to reach 5× the test concentrations (50 uM and 5 uM) and 10 uL were added to two assay plates for the duplicate wells. With each concentration tested on 2 plates, each set of 80 compounds used 4 assay plates (1 uM and 10 uM, with n=2).
For 25-hydroxycholesterol in 25% DMSO/75% Assay Buffer; 10 uL per well was used for NSB samples. Wells for Total Binding and No Receptor sample determination contained 10 uL of 25% DMSO/75% Assay Buffer per well.
Add 20 uL to all wells to reach 6 nM final concentration in the assay.
Stock receptor solution was diluted in assay buffer to obtain 1.5 ug/mL in Assay Buffer. 20 uL was added to all wells. For No Receptor samples, 20 uL Assay Buffer was substituted for receptor solution.
Assay plates were 96-well polypropylene V-bottom plates. […] 10 uL of 25% DMSO/75% Assay Buffer was added to Total Binding or No Receptor wells. 10 uL of 5 uM 25-hydroxycholesterol in 25% DMSO/75% Assay Buffer was added to NSB wells. […] 20 uL of 1.5 ug/mL RORc receptor was added to wells (or 40 uL Assay Buffer to No R wells). Following addition to the wells, the plates were incubated 3 h at 25° C.
Using a Packard Filtermate Harvester, the filter plate were washed 4 times following transfer of the incubated samples. Plates were dry-filtered completely (2 h at 50° C. or overnight at room temperature). 50 uL Microscint 0 was added to all wells and read on Topcount protocol Inverted.
Final concentrations were as follows: 50 mM HEPES buffer (pH 7.4); 150 mM NaCl; 1 mM DTT; 5 mM MgCl2; 0.01% BSA; 5% DMSO; 0.6 ug/mL RORc receptor; 6 nM 25-[^3H]hydroxycholesterol. For NSB wells, 1 uM 25-hydroxycholesterol was also present.

| Structure (SMILES) | IC50 [nM] |
| --- | --- |
| CC(NC(=O)c1cn(C)cn1)c1cc(F)c(CN2[C@@H](C)CC[C@H](c3ccccc3)S2(=O)=O)cc1F (stereo in doubt) [Compound 62, N-[1-[2,5-difluoro-4-[[(3S,6R)-3-methyl-1,1-dioxo-6-phenyl-thiazinan-2-yl]methyl]phenyl]ethyl]-1-methyl-imidazole-4-carboxamide] | 389 |
| C[C@@H](NC1=CC(=O)CCC1)c1cc(F)c(CN2[C@@H](C)CC[C@H](c3ccccc3)S2(=O)=O)cc1F [Compound 22, 3-[[(1R)-1-[2,5-difluoro-4-[[(3S,6R)-3-methyl-1,1-dioxo-6-phenyl-thiazinan-2-yl]methyl]phenyl]ethyl]amino] cylohex-2-en-1-one] | 265 |
| C[C@H](NC1=CC(=O)CCC1)c1cc(F)c(CN2[C@@H](C)CC[C@H](c3ccccc3)S2(=O)=O)cc1F [Compound 26, 3-[[(1S)-1-[2,5-difluoro-4-[[(3S,6R)-3-methyl-1,1-dioxo-6-phenyl-thiazinan-2-yl]methyl]phenyl]ethyl]amino] cyclohex-2-en-1-one] | 131 |
| C[C@H]1CC[C@H](c2ccccc2)S(=O)(=O)N1Cc1ccc(C2(C(=O)NC3(C#N)CC3)CCOCC2)cc1F (stereo in doubt) [Compound 36, N-(1-cyanocyclopropyl)-4-[3-fluoro-4-[[(3S,6R)-3-methyl-1,1-dioxo-6-phenyl-thiazinan-2-yl]methyl]phenyl]tetrahydropyran-4-carboxamide] | 234 |
| CC(NC(=O)c1nc(N)n[nH]1)c1cc(F)c(CN2[C@@H](C)CC[C@H](c3ccccc3)S2(=O)=O)cc1F (stereo in doubt) [Compound 71, 3-amino-N-[1-[2,5-difluoro-4-[[(3S,6R)-3-methyl-1,1-dioxo-6-phenyl-thiazinan-2-yl]methyl]phenyl]ethyl]-1H-1,2,4-triazole-5-carboxamide] | 47.9 |
| CC(NC(=O)c1ccn(C)n1)c1cc(F)c(CN2[C@@H](C)CC[C@H](c3ccccc3)S2(=O)=O)cc1F (stereo in doubt) [Compound 58, N-[1-[2,5-difluoro-4-[[(3S,6R)-3-methyl-1,1-dioxo-6-phenyl-thiazinan-2-yl]methyl]phenyl]ethyl]-1-methyl-pyrazole-3-carboxamide] | 254 |
| C=CCOC1(c2cc(F)c(CN3[C@@H](C)CC[C@H](c4ccccc4)S3(=O)=O)cc2F)CC2(COC2)C1 [Compound 14, (3S,6R)-2-[[4-(6-allyloxy-2-oxaspiro[3.3]heptan-6-yl)-2,5-difluoro-phenyl]methyl]-3-methyl-6-phenyl-thiazinane 1,1-dioxide] | 2.2 |
| C[C@H]1CC[C@H](c2ccccc2)S(=O)(=O)N1Cc1ccc(C2(COCC3COC3)CCOCC2)cc1F [Compound 3, (3S,6R)-2-[[2-fluoro-4-[4-(oxetan-3-ylmethoxymethyl)tetrahydropyran-4-yl]phenyl]methyl]-3-methyl-6-phenyl-thiazinane 1,1-dioxide] | 44.5 |
| C[C@H]1CC[C@H](c2ccccc2)S(=O)(=O)N1Cc1cc(F)c(C2(C(=O)N[C@H]3C[C@@H](O)C3)CCOCC2)cc1F [Compound 38, 4-[2,5-difluoro-4-[[(3S,6R)-3-methyl-1,1-dioxo-6-phenyl-thiazinan-2-yl]methyl]phenyl]-N-(3-hydroxycyclobutyl) tetrahydropyran-4-carboxamide] | 32.6 |
| CC(NC(=O)c1csc(N)n1)c1cc(F)c(CN2[C@@H](C)CC[C@H](c3ccccc3)S2(=O)=O)cc1F (stereo in doubt) [Compound 78, 2-amino-N-[1-[2,5-difluoro-4-[[(3S,6R)-3-methyl-1,1-dioxo-6-phenyl-thiazinan-2-yl]methyl]phenyl]ethyl]thiazole-4-carboxamide] | 215 |
| CC(NC(=O)c1cocn1)c1cc(F)c(CN2[C@@H](C)CC[C@H](c3ccccc3)S2(=O)=O)cc1F (stereo in doubt) [Compound 65, N-[1-[2,5-difluoro-4-[[(3S,6R)-3-methyl-1,1-dioxo-6-phenyl-thiazinan-2-yl]methyl]phenyl]ethyl]oxazole-4-carboxamide] | 167 |
| CC(NC(=O)c1cnccn1)c1cc(F)c(CN2[C@@H](C)CC[C@H](c3ccccc3)S2(=O)=O)cc1F (stereo in doubt) [Compound 57, N-[1-[2,5-difluoro-4-[[(3S,6R)-3-methyl-1,1-dioxo-6-phenyl-thiazinan-2-yl]methyl]phenyl]ethyl]pyrazine-2-carboxamide] | 145 |
| COc1cc(C(=O)NC(C)c2cc(F)c(CN3[C@@H](C)CC[C@H](c4ccccc4)S3(=O)=O)cc2F)on1 (stereo in doubt) [Compound 74, N-[1-[2,5-difluoro-4-[[(3S,6R)-3-methyl-1,1-dioxo-6-phenyl-thiazinan-2-yl]methyl]phenyl]ethyl]-3-methoxy-isoxazole-5-carboxamide] | 7.3 |
| CC(NC(=O)c1c[nH]cn1)c1cc(F)c(CN2[C@@H](C)CC[C@H](c3ccccc3)S2(=O)=O)cc1F (stereo in doubt) [Compound 59, N-[1-[2,5-difluoro-4-[[(3S,6R)-3-methyl-1,1-dioxo-6-phenyl-thiazinan-2-yl]methyl]phenyl]ethyl]-1H-imidazole-4-carboxamide] | 93 |

Now from value to compound:

| IC50 [nM] | Structure (SMILES) |
| --- | --- |
| 33.1 | C[C@H]1CC[C@H](c2ccccc2)S(=O)(=O)N1Cc1cc(F)c(C2(NC(=O)C3CC3)COC2)cc1F (stereo in doubt) [Compound 46, N-[3-[2,5-difluoro-4-[[(3S,6R)-3-methyl-1,1-dioxo-6-phenyl-thiazinan-2-yl]methyl]phenyl]oxetan-3-yl]cyclopropanecarboxamide] |
| 56.4 | CC(NCC(N)=O)c1cc(F)c(CN2[C@@H](C)CC[C@H](c3ccccc3)S2(=O)=O)cc1F (stereo partly drawn) [Compound 29, 2-[1-[2,5-difluoro-4-[[(3S,6R)-3-methyl-1,1-dioxo-6-phenyl-thiazinan-2-yl]methyl]phenyl]ethylamino] acetamide] |
| 2.3 | C[C@H]1CC[C@H](c2ccccc2)S(=O)(=O)N1Cc1cc(F)c(C2(OCC(N)=O)CC3(COC3)C2)cc1F [Compound 12, 2-[[6-[2,5-difluoro-4-[[(3S,6R)-3-methyl-1,1-dioxo-6-phenyl-thiazinan-2-yl]methyl]phenyl]-2-oxaspiro[3.3]heptan-6-yl]oxy]acetamide] |
| 31.8 | C[C@H]1CC[C@H](c2ccccc2)S(=O)(=O)N1Cc1cc(F)c([C@H](CC2COC2)C(N)=O)cc1F [Compound 4, (2S)-2-[2,5-difluoro-4-[[(3S,6R)-3-methyl-1,1-dioxo-6-phenyl-thiazinan-2-yl]methyl]phenyl]-3-(oxetan-3-yl)propanamide] |
| 34.8 | C[C@H]1CC[C@H](c2ccccc2)S(=O)(=O)N1Cc1cc(F)c([C@H](OC2COC2)C(N)=O)cc1F [Compound 9, (2S)-2-[2,5-difluoro-4-[[(3S,6R)-3-methyl-1,1-dioxo-6-phenyl-thiazinan-2-yl]methyl]phenyl]-2-(oxetan-3-yloxy)acetamide] |
| 56.8 | C[C@H]1CC[C@H](c2ccccc2)S(=O)(=O)N1Cc1cc(F)c([C@H](CCC#N)C(N)=O)cc1F [Compound 16, (2S)-4-cyano-2-[2,5-difluoro-4-[[(3S,6R)-3-methyl-1,1-dioxo-6-phenyl-thiazinan-2-yl]methyl]phenyl]butanamide] |
| 50.7 | C[C@H]1CC[C@H](c2ccccc2)S(=O)(=O)N1Cc1cc(F)c([C@H](OCC2CC2)C(N)=O)cc1F [Compound 19, (2S)-2-(cyclopropylmethoxy)-2-[2,5-difluoro-4-[[(3S,6R)-3-methyl-1,1-dioxo-6-phenyl-thiazinan-2-yl]methyl]phenyl]acetamide] |
| 7 | Cc1cc(C(=O)NC(C)c2cc(F)c(CN3[C@@H](C)CC[C@H](c4ccccc4)S3(=O)=O)cc2F)no1 (stereo in doubt) [Compound 51, N-[1-[2,5-difluoro-4-[[(3S,6R)-3-methyl-1,1-dioxo-6-phenyl-thiazinan-2-yl]methyl]phenyl]ethyl]-5-methyl-isoxazole-3-carboxamide] |
